Reference: patent US20160067221A1, “USE OF ERGOTHIONEINE FOR INDUCING ACTIVITY OF NRF2 IN CELL” (China Medical University, priority 2014, published 2016)

What was measured:
Assay type in all cases: cell-based, human
[1] = test system: UVA-irradiated HaCaT cells; experiment: Intracellular ROS generation (HDCF-DA / DCF fluorescence)
Procedure: An exposure of the UVA will stimulate cells generating ROS. […] The HDCF-DA is a lipid-soluble fluorescent dye and has a cell membrane permeability. The HDCF-DA will bind to intracellular esterases to form a non-fluorescent 2′,7′-dichlorofluorescin (DCFH). The DCFH is subsequently oxidated by H2O2 to form a fluorescent 2′,7′-dichlorofluorescein (DCF), and then accumulated in a mitochondria. […] The HaCaT cells are subsequently incubated with or without the ergothioneine, and then maintained at 37° C. in a humidified atmosphere of 5% CO2 for 24 hours, wherein the concentration of the ergothioneine is 500 nM. Next, the HaCaT cells are washed with PBS three times, and then irradiated with the UVA (15 J/cm^2). After the UVA irradiation, the PBS is replaced with 1 mL of HDCF-DA (10 μM) in each well to react at 37° C. in the dark for 30 minutes. After the reaction, the fluorescent dye is removed, and the HaCaT cells are washed with PBS thrice to remove the remaining fluorescent dye. The intracellular ROS, as indicated by DCF fluorescence, is measured with the fluorescence microscope and photographed.

HaCaT cells = experiment: Comet assay (DNA damage); settings: for Toxicity Scale 0 (comets in class 0) / Toxicity Scale 1 (comets in class 1) / Toxicity Scale 2 (comets in class 2) / Toxicity Scale 3 (comets in class 3) / Toxicity Scale 4 (comets in class 4): per 100 comets
From the text: The exposure of the UVA can cause a DNA damage. To examine the effect of the ergothioneine on the UVA-induced DNA damage, we use a comet assay to analyze the DNA damage. The comet assay involves an encapsulation of the cells in a low-melting-point agarose suspension, the cells lysis in alkaline (pH>13) conditions, a short-term electrophoresis of the suspended lysed cells, and a stained DNA of an electrophoretic stripe using the fluorescent dye. The term “comet” refers to a pattern of a DNA migration through the electrophoresis gel, wherein the DNA migration is caused by a DNA cleavage fragment of the damaged cell released from its nucleus, and the DNA cleavage fragment moves faster than the nucleus of a non-damaged cell in an electric field and results in structure resembling the comet. […] Then, the HaCaT cells are performed the comet assay and stained by red fluorescent dye. The pattern of the nucleus of the damaged cell resembles the comet in the comet assay, which is caused by the DNA cleavage fragment of the damaged cell. In contrast, the pattern of the nucleus of the normal cell, which has non-DNA cleavage fragment, is spherical in the comet assay. […] In FIG. 4 and Table 1, the UVA irradiation (15 J/cm^2) for 4 hours triggers the DNA breakage of the nucleus shown as the tail. The overall score of the group treated with the UVA irradiation alone is 356.3±2.1. […] Therefore, the ergothioneine can inhibit the DNA damage and has a protective property.

[2] = test system: UVA-irradiated HaCaT cells; experiment: TUNEL assay (UVA-induced apoptosis); settings: 500 nM 24 hours prior to UVA 15 J/cm^2, vs UVA alone
Procedure: The apoptosis can induce DNA double-strand breaks to generate a DNA fragment, To examine the effect of the ergothioneine on the UVA-induced apoptosis, an apoptotic cell death is measured using a terminal deoxyucleotidyl transferase-meditated dUTP-fluorescein nick end-labeking (TUNEL) assay, and protein expressions of apoptosis-related proteins, Caspase-3, Caspase-9, Bax and Bcl-2, are measured using a Western blot analysis. Therefore, the aforementioned methods in this example can analyze whether pretreating with the ergothioneine improves the UVA-induced apoptosis. A chromosome breakage represents an initial stage of a […]. The TUNEL assay is based on a presence of nicks in the DNA which can be identified by terminal deoxynucleotidyl transferase (TdT) at 3′ OH ends, ad the 3′ OH ends bind to dUTPs that are secondarily labeled with a fluorescent marker. After a coloration, the cells suffered the apoptosis can be identified. The HaCaT cells are incubated with or without the ergothioneine for 24 hours, wherein the concentration of the ergothioneine is 500 nM. After incubation, the HaCaT cells are exposed to the UVA (15 J/cm^2), and then cultured for 4 hours, Then, the HaCaT cells are incubated with TUNEL reaction buffer. The stained cells are visualized using the fluorescence microscope and photographed. […] FIG. 5-(B) is the quantitative diagram of the TUNEL assay.

[3] = test system: Nrf2 knockdown HaCaT cells; experiment: MTT cell viability in siRNA-transfected HaCaT cells; settings: 500 nM 24 hours, UVA 15 J/cm^2 4 hours
Procedure: (§1) The siRNA transfection includes steps as follows. The HaCaT cells are seeded in a 6-well plate with 4×10^5 cells/well and then maintained at 37° C. in the humidified atmosphere of 5% CO2 untill the time of the transfection. The day after reaching 40-60% confluence, the culture medium is replaced with 1 mL of FBS-free and antibiotic-free culture medium in each well, and the HaCaT cells are transfected with a siNrf2 or a control siRNA by using Lipofectamine 2000 (Invitrogen, U.S.A.) for 4-6 hours. After the incubation for 4-6 hours, the HaCaT cells are washed with the culture medium supplemented with 10% FBS 2-3 times, and then cultured in the culture medium supplemented with 10% FBS for 12-16 hours.
The HaCaT cells are incubated with 500 nM ergothioneine for 24 hours after the siRNA transfection.

[4] = test system: Nrf2 knockdown HaCaT cells; experiment: TUNEL apoptosis in siRNA-transfected HaCaT cells
Procedure: as §1

## C[N+](C)(C)[C@@H](Cc1c[nH]c(=S)[nH]1)C(=O)[O-] [ergothioneine, 2-mercapto histidine trimethylbetain]
[1]; 500 nM 24 hours prior to 15 J/cm^2 UVA
  DCF fluorescence (UVA-induced ROS generation): ignificantly decreased
[1]; 500 nM alone, no UVA
  ROS generation: non-effect
HaCaT cells; 250 nM + 15 J/cm^2 UVA
  Total Damage (overall comet score, 0-400): 144 ± 10
  Toxicity Scale 0 (comets in class 0): 20 ± 1
  Toxicity Scale 1 (comets in class 1): 27 ± 6
  Toxicity Scale 2 (comets in class 2): 52 ± 9
  Toxicity Scale 3 (comets in class 3): 0 ± 0
  Toxicity Scale 4 (comets in class 4): 0 ± 0
HaCaT cells; 250 nM, no UVA
  Total Damage (overall comet score, 0-400): 14 ± 4
  Toxicity Scale 0 (comets in class 0): 88 ± 4
  Toxicity Scale 1 (comets in class 1): 10 ± 4
  Toxicity Scale 2 (comets in class 2): 2 ± 2
  Toxicity Scale 3 (comets in class 3): 0 ± 0
  Toxicity Scale 4 (comets in class 4): 0 ± 0
HaCaT cells; 500 nM + 15 J/cm^2 UVA
  Total Damage (overall comet score, 0-400): 59.0±7.0
  Toxicity Scale 0 (comets in class 0): 49 ± 7
  Toxicity Scale 1 (comets in class 1): 43 ± 8
  Toxicity Scale 2 (comets in class 2): 8 ± 1
  Toxicity Scale 3 (comets in class 3): 0 ± 0
  Toxicity Scale 4 (comets in class 4): 0 ± 0
HaCaT cells; 500 nM + 15 J/cm^2 UVA, listed as EGT
  Total Damage (overall comet score, 0-400): 59 ± 7
HaCaT cells; 500 nM, no UVA
  Total Damage (overall comet score, 0-400): 22 ± 6
  Toxicity Scale 0 (comets in class 0): 81 ± 6
  Toxicity Scale 1 (comets in class 1): 16 ± 7
  Toxicity Scale 2 (comets in class 2): 3 ± 2
  Toxicity Scale 3 (comets in class 3): 0 ± 0
  Toxicity Scale 4 (comets in class 4): 0 ± 0
[2]
  amount of TUNEL fluorescence (apoptosis): enormously reduced
[3]; Nrf2 siRNA
  UVA-induced cell death: unable to ameliorate the UVA-induced cell death
[3]; control siRNA
  UVA-induced cell death: able to reduce a UVA-induced cell death
[4]; Nrf2 siRNA, ergothioneine pretreatment, UVA
  UVA-induced apoptosis (TUNEL): unable to improve the UVA-induced apoptosis
[4]; control siRNA, ergothioneine prior to UVA, vs UVA alone
  apoptosis (TUNEL): significantly decreased
